Among the data in patent US12421211B2, “Heterocyclic compounds” (Hoffmann-La Roche Inc., priority 2021, dated 2025) are IC90 values, retold here.

SMILES strings stand for the structures. Where a name gives a salt, the structure may show the parent alone.

For the first assay, the system named is Acinetobacter baumannii ATCC17961. Description: Antimicrobial susceptibility testing: 90% growth inhibitory concentration (IC90) determination. The format is cell-based. The conditions noted are these: 90% growth inhibitory concentration, Acinetobacter baumannii ATCC17961, Iso-Sensitest broth, OD 600 nm over 16 h; formic acid; formate; read-out: ATCC 17961 IC90. Put shortly:
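Growth inhibition derived in log phase from OD600 kinetics (every 20 minutes, 16h, 35±2° C) of ATCC17961 in Iso-Sensitest medium, inoculum ~5×10^5 CFU/ml. Compounds tested as twofold series, 10 points (e.g. 50 to 0.097 μM final); IC90 and IC50 reported.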
Turning to `COCCn1ncc(-c2ccc(-c3cnc(C(=O)Nc4ccc(C(=O)N5CCN(C(=O)C6CC[N+](CC(=O)O)(CC7CNC7)CC6)CC5)c(Cl)c4)n3C)c(F)c2F)c1C` (centres unmarked) [Example B29, 2-[1-(azetidin-3-ylmethyl)-4-[4-[2-chloro-4-[[5-[2,3-difluoro-4-[1-(2-methoxyethyl)-5-methyl-pyrazol-4-yl]phenyl]-1-methyl-imidazole-2-carbonyl]amino]benzoyl]piperazine-1-carbonyl]piperidin-1-ium-1-yl]acetic acid; formic acid; formate], the concentration for an effect of 90% (IC90) (in general, the concentration at which the effect reaches the 90% level) was determined as 0.34 µM.

Still in this assay, the particulars now being: Acinetobacter baumannii, ATCC17961, 16 h, 90% growth inhibitory concentration, Acinetobacter baumannii ATCC17961, Iso-Sensitest broth, OD 600 nm over 16 h; read-out: ATCC 17961 IC90.
With `Cc1nn(CC(=O)NC2CCC(F)(F)CC2)cc1-c1ccc(-c2cnc(C(=O)Nc3ccc(C(=O)N4CCN(C(=O)C5CC[N+](C)(C)CC5)CC4)c(Cl)c3)n2C)c(F)c1F` [Example G26, N-[3-chloro-4-[4-(1,1-dimethylpiperidin-1-ium-4-carbonyl)piperazine-1-carbonyl]phenyl]-5-[4-[1-[2-[(4,4-difluorocyclohexyl)amino]-2-oxo-ethyl]-3-methyl-pyrazol-4-yl]-2,3-difluoro-phenyl]-1-methyl-imidazole-2-carboxamide; formate], the concentration for an effect of 90% (IC90) was found to be 0.1 µM.
On the same count and under the same terms, as for `COCCn1ncc(-c2ccc(-c3cnc(C(=O)Nc4ccc(C(=O)N5CCN(C(=O)[C@@H]6C[C@@H](O)CN6)CC5)c(C)c4)n3C)c(F)c2F)c1C` [Example E8, 5-[2,3-difluoro-4-[1-(2-methoxyethyl)-5-methyl-pyrazol-4-yl]phenyl]-N-[4-[4-[(2S,4R)-4-hydroxypyrrolidine-2-carbonyl]piperazine-1-carbonyl]-3-methyl-phenyl]-1-methyl-imidazole-2-carboxamide], the figure is 0.2 µM; as for `COCCn1ncc(-c2ccc(-c3cnc(C(=O)Nc4ccc(C(=O)N5CCN(C(=O)[C@H]6[C@@H]7C[N+](C)(C)C[C@@H]76)CC5)c(Cl)c4)n3C)c(F)c2F)c1C` [Example B26, N-[3-chloro-4-[4-[(1R,5S)-3,3-dimethyl-3-azoniabicyclo[3.10]hexane-6-carbonyl]piperazine-1-carbonyl]phenyl]-5-[2,3-difluoro-4-[1-(2-methoxyethyl)-5-methyl-pyrazol-4-yl]phenyl]-1-methyl-imidazole-2-carboxamide; formate], 0.064 µM; as for `Cc1nn(Cc2c[nH]nn2)cc1-c1ccc(-c2cnc(C(=O)Nc3ccc(C(=O)N4CCN(C(=O)C5CC[N+](C)(C)CC5)CC4)c(Cl)c3)n2C)c(F)c1F` [Example F56, N-[3-chloro-4-[4-(1,1-dimethylpiperidin-1-ium-4-carbonyl)piperazine-1-carbonyl]phenyl]-5-[2,3-difluoro-4-[3-methyl-1-(1H-triazol-4-ylmethyl)pyrazol-4-yl]phenyl]-1-methyl-imidazole-2-carboxamide; formate], 0.33 µM.
The same measure, in the same setting: the figure for `CCc1c(-c2ccc(-c3cnc(C(=O)Nc4ccc(C(=O)N5CCN(C(=O)[C@@H]6C[C@@H](O)C[N+]6(C)C)CC5)c(Cl)c4)n3C)c(F)c2F)cnn1CCOC` [Example F20, N-[3-chloro-4-[4-[(2S,4R)-4-hydroxy-1,1-dimethyl-pyrrolidin-1-ium-2-carbonyl]piperazine-1-carbonyl]phenyl]-5-[4-[5-ethyl-1-(2-methoxyethyl)pyrazol-4-yl]-2,3-difluoro-phenyl]-1-methyl-imidazole-2-carboxamide; formate] is 0.18 µM; for `COCCn1ncc(-c2ccc(-c3cnc(C(=O)Nc4ccc(C(=O)N5CCC(C(=O)N6CC[N+](C)(CC(=O)O)CC6)CC5)c(Cl)c4)n3C)c(F)c2F)c1C` [Example B13, 2-[4-[1-[2-chloro-4-[[5-[2,3-difluoro-4-[1-(2-methoxyethyl)-5-methyl-pyrazol-4-yl]phenyl]-1-methyl-imidazole-2-carbonyl]amino]benzoyl]piperidine-4-carbonyl]-1-methyl-piperazin-1-ium-l-yl]acetic acid; 2,2,2-trifluoroacetate] it is 0.81 µM.
The same measure, in the same setting: the figure for `COc1ccc(NC(=O)Cn2cc(-c3ccc(-c4cnc(C(=O)Nc5ccc(C(=O)N6CCN(C(=O)C7CC[N+](C)(C)CC7)CC6)c(Cl)c5)n4C)c(F)c3F)c(C)n2)nc1` [Example G28, N-[3-chloro-4-[4-(1,1-dimethylpiperidin-1-ium-4-carbonyl)piperazine-1-carbonyl]phenyl]-5-[2,3-difluoro-4-[1-[2-[(5-methoxy-2-pyridyl)amino]-2-oxo-ethyl]-3-methyl-pyrazol-4-yl]phenyl]-1-methyl-imidazole-2-carboxamide; formate] is 0.088 µM; for `Cc1nn(CCNC(=O)NC(C)(C)C)cc1-c1ccc(-c2cnc(C(=O)Nc3ccc(C(=O)N4CCN(C(=O)C5CC[N+](C)(C)CC5)CC4)c(Cl)c3)n2C)c(F)c1F` [Example H5, 5-[4-[1-[2-(tert-butylcarbamoylamino)ethyl]-3-methyl-pyrazol-4-yl]-2,3-difluoro-phenyl]-N-[3-chloro-4-[4-(1,1-dimethylpiperidin-1-ium-4-carbonyl)piperazine-1-carbonyl]phenyl]-1-methyl-imidazole-2-carboxamide; formate] it is 0.17 µM; for `COCCn1ncc(-c2ccc(-c3cnc(C(=O)Nc4ccc(C(=O)N5CCN(C(=O)[C@@H]6C[C@@H](O)C[N+]6(C)C)CC5)c(Cl)c4)n3C)c(F)c2F)c1C` [Example F15, N-[3-chloro-4-[4-[(2S,4R)-4-hydroxy-1,1-dimethyl-pyrrolidin-1-ium-2-carbonyl]piperazine-1-carbonyl]phenyl]-5-[2,3-difluoro-4-[1-(2-methoxyethyl)-5-methyl-pyrazol-4-yl]phenyl]-1-methyl-imidazole-2-carboxamide; 2,2,2-trifluoroacetate] it is 0.055 µM.
In the case of `Cn1nccc1-c1n[nH]cc1-c1ccc(-c2cnc(C(=O)Nc3ccc(C(=O)N4CCN(C(=O)C5CC[N+](C)(C)CC5)CC4)c(Cl)c3)n2C)c(F)c1F` [Example F44, N-[3-chloro-4-[4-(1,1-dimethylpiperidin-1-ium-4-carbonyl)piperazine-1-carbonyl]phenyl]-5-[2,3-difluoro-4-[3-(2-methylpyrazol-3-yl)-1H-pyrazol-4-yl]phenyl]-1-methyl-imidazole-2-carboxamide; formate], the IC90 was 0.73 µM.
The same measure, in the same setting: as for `Cc1nn(CC2CC2(F)F)c(C)c1-c1ccc(-c2cnc(C(=O)Nc3ccc(C(=O)N4CCN(C(=O)C5C[C@@H](O)C[N+]5(C)C)CC4)c(Cl)c3)n2C)c(F)c1F` (stereo partly drawn) [Example K3, N-[3-chloro-4-[4-[(4R)-4-hydroxy-1,1-dimethyl-pyrrolidin-1-ium-2-carbonyl]piperazine-1-carbonyl]phenyl]-5-[4-[1-2,2-difluorocyclopropyl)methyl]-3,5-dimethyl-pyrazol-4-yl]-2,3-difluoro-phenyl]-1-methyl-imidazole-2-carboxamide; formate], the figure is 0.3 µM; as for `COCCn1nc(C)c(-c2ccc(-c3cnc(C(=O)Nc4ccc(C(=O)N5CCN(C(=O)C[N+]6(C)CCC(O)C6)CC5)c(Cl)c4)n3C)c(F)c2F)c1C` (centres unmarked) [Example C11, N-[3-chloro-4-[4-[2-(3-hydroxy-1-methyl-pyrrolidin-1-ium-1-yl)acetyl]piperazine-1-carbonyl]phenyl]-5-[2,3-difluoro-4-[1-(2-methoxyethyl)-3,5-dimethyl-pyrazol-4-yl]phenyl]-1-methyl-imidazole-2-carboxamide; formate], 0.32 µM; as for `COCCn1ncc(-c2ccc(-c3cnc(C(=O)Nc4ccc(C(=O)N5CCC(C(=O)N6CC[N+](C)(CC(N)=O)CC6)CC5)c(Cl)c4)n3C)c(F)c2F)c1C` [Example B15, N-[4-[4-[4-(2-amino-2-oxo-ethyl)-4-methyl-piperazin-4-ium-1-carbonyl]piperidine-1-carbonyl]-3-chloro-phenyl]-5-[2,3-difluoro-4-[1-(2-methoxyethyl)-5-methyl-pyrazol-4-yl]phenyl]-1-methyl-imidazole-2-carboxamide; formate], 0.17 µM.
`COCCn1ncc(-c2ccc(-c3cnc(C(=O)Nc4ccc(C(=O)N5CCC(C(=O)N6CC[N+](C)(CC7CNC7)CC6)CC5)c(Cl)c4)n3C)c(F)c2F)c1C` [Example B23, N-[4-[4-[4-(azetidin-3-ylmethyl)-4-methyl-piperazin-4-ium-1-carbonyl]piperidine-1-carbonyl]-3-chloro-phenyl]-5-[2,3-difluoro-4-[1-(2-methoxyethyl)-5-methyl-pyrazol-4-yl]phenyl]-1-methyl-imidazole-2-carboxamide; formate]: the IC90 amounted to 0.098 µM.
Still for that read-out and setting: as for `Cc1c(-c2ccc(-c3cnc(C(=O)Nc4ccc(C(=O)N5CCN(C(=O)C6CC[N+](C)(C)CC6)CC5)c(Cl)c4)n3C)c(F)c2F)cnn1CCNC(=O)Nc1ccccn1` [Example H6, N-[3-chloro-4-[4-(1,1-dimethylpiperidin-1-ium-4-carbonyl)piperazine-1-carbonyl]phenyl]-5-[2,3-difluoro-4-[5-methyl-1-[2-(2-pyridylcarbamoylamino)ethyl]pyrazol-4-yl]phenyl]-1-methyl-imidazole-2-carboxamide; formate], the figure is 0.17 µM.

The same assay, now with this note: Acinetobacter baumannii, ATCC17961, 16 h, read-out: ATCC 17961 IC90.
In the case of `Cc1n[nH]c(C)c1-c1ccc(-c2cnc(C(=O)Nc3ccc(C(=O)N4CCN(C(=O)[C@@H]5C[C@@H](O)C[N+]5(C)C)CC4)c(Cl)c3)n2C)c(F)c1F` [Example D43, N-[3-chloro-4-[4-[(2S,4R)-4-hydroxy-1,1-dimethyl-pyrrolidin-1-ium-2-carbonyl]piperazine-1-carbonyl]phenyl]-5-[4-(3,5-dimethyl-1H-pyrazol-4-yl)-2,3-difluoro-phenyl]-1-methyl-imidazole-2-carboxamide; formate], the IC90 is 0.81 µM.
